Results taken from patent US9572786B2, “Use of capsiate or dihydrocapsidate” (Catholic University Industry Academy Cooperation Foundation, priority 2007, dated 2017).

Tested on: Sprague dawley (SD) rats
Assay: Retinal vascular permeability in streptozotocin induced diabetic retinopathy
Type: in vivo, rat
Settings: intravitreally injected 1-week after streptozotocin, observed at 3 weeks with dextran FITC
Description: Diabetes are induced by performing intraperitoneal injection of 60 mg/kg of streptozotocin (Sigma, St Louis, Mo., USA) into 8-week-old male Sprague dawley (SD) rats (250 g). 3 days later, serum glucose level was measured and rats having serum glucose level of […] and more are selected and used in experiments. Capsiate or capsaicin was intravitreally injected 1-week after the injection of streptozotocin, respectively. 3 weeks after the injection of streptozotocin, 0.5 ml of dextran FITC (25 mg/ml, MW 40K, Sigma, St Louis, Mo., USA) was injected through tail vein of tested rats to imaging retinal vascular pattern. Retinal tissues of the rats are isolated and observed by fluorescent microscopy (Olympus, Tokyo, Japan). The increase of retinal vascular permeability is observed in nonproliferative diabetic retinopathy, proliferative diabetic retinopathy and diabetic macular edema and result from cracks in vascular vessel due to breakdown of blood-retinal barrier (BRB).

COc1cc(CNC(=O)CCCC/C=C/C(C)C)ccc1O [Capsaicin, capsaicin, reference compound]
increment of retinal vascular permeability: does not effect
